The values below are quoted from earlier work in US20040039036A1, “Water-soluble liquid internal medicine” (priority 2000, published 2004).

For the series the following is noted: JP-A-11-193233 injectable solution, famotidine 1 mg/mL; after preservation at 40° C. for 2 months.

On to `NC(N)=Nc1nc(CSCCC(N)=NS(N)(=O)=O)cs1` [famotidine], for which the residual rate is given as 96.6%.
